Data from PMC4980153 (Biochemical pharmacology, 2016).
pKi: −log10 of the molar value. Where “and” joins values, the source holds several entries; their conditions need not be identical. Identical values can stand only once. Counter-ions that a name gives are not always drawn. Like-named read-outs stand apart in the source and are kept apart here.

Tests used:
[1] = target: [H107K, G112R] wild type BB3 receptor (Homo sapiens, UniProt P32247, G112R/H107K); assay: 125I-peptide #1 competition binding, CHOP cells
Chain of [H107K, G112R] wild type BB3 receptor (P32247 whole entry H107K/G112R): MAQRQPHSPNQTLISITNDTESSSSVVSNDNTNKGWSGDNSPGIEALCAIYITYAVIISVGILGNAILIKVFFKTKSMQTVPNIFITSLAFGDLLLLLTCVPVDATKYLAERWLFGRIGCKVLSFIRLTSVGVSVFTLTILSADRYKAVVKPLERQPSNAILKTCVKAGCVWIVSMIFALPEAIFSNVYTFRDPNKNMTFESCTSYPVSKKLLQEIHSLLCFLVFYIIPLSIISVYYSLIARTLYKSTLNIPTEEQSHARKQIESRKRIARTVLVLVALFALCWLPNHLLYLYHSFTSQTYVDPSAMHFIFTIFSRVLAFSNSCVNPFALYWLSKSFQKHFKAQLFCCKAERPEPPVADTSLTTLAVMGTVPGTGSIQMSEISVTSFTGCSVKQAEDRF

[R127N] BB3* receptor = [R127N] BB3* receptor (Homo sapiens, UniProt P32247, H294R/R127N); assay: 125I-peptide #1 competition binding, CHOP cells
Chain of [R127N] BB3* receptor (P32247 whole entry R127N/H294R): as the sequence (P32247 whole entry H107K/G112R) above, with K107H, R112G, R127N, H294R counted along it

[R127K] BB3* receptor = [R127K] BB3* receptor (Homo sapiens, UniProt P32247, H294R/R127K); assay: 125I-peptide #1 competition binding, CHOP cells
Chain of [R127K] BB3* receptor (P32247 whole entry R127K/H294R): as the sequence (P32247 whole entry H107K/G112R) above, with K107H, R112G, R127K, H294R counted along it

[2] = target: [H107K] wild type BB3 receptor (Homo sapiens, UniProt P32247, H107K); assay: 125I-peptide #1 competition binding, CHOP cells
Chain of [H107K] wild type BB3 receptor (P32247 whole entry H107K): as the sequence (P32247 whole entry H107K/G112R) above, with R112G counted along it

[L123I] BB3* receptor = [L123I] BB3* receptor (Homo sapiens, UniProt P32247, H294R/L123I); assay: 125I-peptide #1 competition binding, CHOP cells
Chain of [L123I] BB3* receptor (P32247 whole entry L123I/H294R): as the sequence (P32247 whole entry H107K/G112R) above, with K107H, R112G, L123I, H294R counted along it

[3] = target: [V101A] wild type BB3 receptor (Homo sapiens, UniProt P32247, V101A); assay: 125I-peptide #1 competition binding, CHOP cells
Chain of [V101A] wild type BB3 receptor (P32247 whole entry V101A): as the sequence (P32247 whole entry H107K/G112R) above, with V101A, K107H, R112G counted along it

[4] = target: [H107K, G112R] BB3* receptor (Homo sapiens, UniProt P32247, G112R/H107K/H294R); assay: 125I-peptide #1 competition binding, CHOP cells
Chain of [H107K, G112R] BB3* receptor (P32247 whole entry H107K/G112R/H294R): as the sequence (P32247 whole entry H107K/G112R) above, with H294R counted along it

[5] = target: [R127N] wild type BB3 receptor (Homo sapiens, UniProt P32247, R127N); assay: 125I-peptide #1 competition binding, CHOP cells
Chain of [R127N] wild type BB3 receptor (P32247 whole entry R127N): as the sequence (P32247 whole entry H107K/G112R) above, with K107H, R112G, R127N counted along it

[6] = target: BB3 and BB3* receptors and their mutants (Homo sapiens, UniProt P32247, H294R/R127H); details: [R127H], background not stated (discussion)
Chain of BB3 and BB3* receptors and their mutants (Homo sapiens, UniProt P32247, H294R/R127H) (P32247 whole entry R127H/H294R): as the sequence (P32247 whole entry H107K/G112R) above, with K107H, R112G, R127H, H294R counted along it

[7] = tested on: BB3 and BB3* receptors and their mutants
[8] = target: BB3 and BB3* receptors and their mutants (Homo sapiens, UniProt P32247, H294R/R127K); details: [R127K], background not stated (discussion)
Chain of BB3 and BB3* receptors and their mutants (Homo sapiens, UniProt P32247, H294R/R127K) (P32247 whole entry R127K/H294R): as the sequence (P32247 whole entry H107K/G112R) above, with K107H, R112G, R127K, H294R counted along it

[9] = target: [R127H] wild type BB3 receptor (Homo sapiens, UniProt P32247, R127H); assay: 125I-peptide #1 competition binding, CHOP cells
Chain of [R127H] wild type BB3 receptor (P32247 whole entry R127H): as the sequence (P32247 whole entry H107K/G112R) above, with K107H, R112G, R127H counted along it

[R127H] BB3* receptor = [R127H] BB3* receptor (Homo sapiens, UniProt P32247, H294R/R127H); assay: 125I-peptide #1 competition binding, CHOP cells
Chain of [R127H] BB3* receptor (P32247 whole entry R127H/H294R): as the sequence (P32247 whole entry H107K/G112R) above, with K107H, R112G, R127H, H294R counted along it

[10] = target: [H107F] wild type BB3 receptor (Homo sapiens, UniProt P32247, H107F); assay: 125I-peptide #1 competition binding, CHOP cells
Chain of [H107F] wild type BB3 receptor (P32247 whole entry H107F): as the sequence (P32247 whole entry H107K/G112R) above, with K107F, R112G counted along it

[11] = target: [R127K] wild type BB3 receptor (Homo sapiens, UniProt P32247, R127K); assay: 125I-peptide #1 competition binding, CHOP cells
Chain of [R127K] wild type BB3 receptor (P32247 whole entry R127K): as the sequence (P32247 whole entry H107K/G112R) above, with K107H, R112G, R127K counted along it

[S124P] BB3* receptor = [S124P] BB3* receptor (Homo sapiens, UniProt P32247, H294R/S124P); assay: 125I-peptide #1 competition binding, CHOP cells
Chain of [S124P] BB3* receptor (P32247 whole entry S124P/H294R): as the sequence (P32247 whole entry H107K/G112R) above, with K107H, R112G, S124P, H294R counted along it

[12] = target: (e1-BB2) BB3* loss-of-affinity chimera (Homo sapiens, UniProt P32247, E111D/G112R/H107K/H294R/T106S); assay: 125I-peptide #1 competition binding, CHOP cells; set-up: species or system mouse; details: EC1 of BB3* replaced by EC1 of BB2, vs BB3*
Chain of (e1-BB2) BB3* loss-of-affinity chimera (P32247 whole entry T106S/H107K/E111D/G112R/H294R): as the sequence (P32247 whole entry H107K/G112R) above, with T106S, E111D, H294R counted along it

[13] = target: [H107Y] wild type BB3 receptor (Homo sapiens, UniProt P32247, H107Y); assay: 125I-peptide #1 competition binding, CHOP cells
Chain of [H107Y] wild type BB3 receptor (P32247 whole entry H107Y): as the sequence (P32247 whole entry H107K/G112R) above, with K107Y, R112G counted along it

[14] = tested on: (e1-BB3) BB2 gain-of-affinity chimera; assay: 125I-peptide #1 competition binding, CHOP cells; set-up: species or system human, mouse; details: EC1 of BB2 replaced by EC1 of BB3, vs wild type BB2
[H107K] BB3* receptor = [H107K] BB3* receptor (Homo sapiens, UniProt P32247, H107K/H294R); assay: 125I-peptide #1 competition binding, CHOP cells
Chain of [H107K] BB3* receptor (P32247 whole entry H107K/H294R): as the sequence (P32247 whole entry H107K/G112R) above, with R112G, H294R counted along it

[H107D] BB3* receptor = [H107D] BB3* receptor (Homo sapiens, UniProt P32247, H107D/H294R); assay: 125I-peptide #1 competition binding, CHOP cells
Chain of [H107D] BB3* receptor (P32247 whole entry H107D/H294R): as the sequence (P32247 whole entry H107K/G112R) above, with K107D, R112G, H294R counted along it

[15] = target: (e2-BB2) BB3* loss-of-affinity chimera (Homo sapiens, UniProt P32247, D193V/E201I/E215K/H294R/K196T/K210N/K211E/L213H/L219M/L220A/M198Q/N187D/N195D/P194K/Q214P/R192H/S205P/T190P/T204A/V188L/V208H/Y189H); assay: 125I-peptide #1 competition binding, CHOP cells; set-up: species or system mouse; details: EC2 of BB3* replaced by EC2 of BB2, vs BB3*
Chain of (e2-BB2) BB3* loss-of-affinity chimera (P32247 1-399 with the stated changes): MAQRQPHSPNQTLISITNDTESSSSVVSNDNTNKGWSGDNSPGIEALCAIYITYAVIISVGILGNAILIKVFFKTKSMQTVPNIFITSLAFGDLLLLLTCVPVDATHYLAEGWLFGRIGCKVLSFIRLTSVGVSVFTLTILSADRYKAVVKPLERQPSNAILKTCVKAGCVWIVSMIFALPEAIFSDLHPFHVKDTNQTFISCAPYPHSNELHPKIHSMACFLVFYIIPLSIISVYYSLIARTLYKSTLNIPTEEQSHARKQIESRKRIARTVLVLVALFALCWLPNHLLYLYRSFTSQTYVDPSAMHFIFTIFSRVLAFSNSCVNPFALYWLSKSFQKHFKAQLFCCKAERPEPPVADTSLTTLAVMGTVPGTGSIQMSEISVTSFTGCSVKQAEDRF

Q: Which results are given for `CC(C)C[C@H](NC(=O)C[C@H](O)[C@H](CC1CCCCC1)NC(=O)[C@H](Cc1c[nH]cn1)NC(=O)[C@H](Cc1ccccc1)NC(=O)OC(C)(C)C)C(=O)NCc1cccc([N+](C)(C)C)c1` [Bantag-1, Boc-Phe-His-4-amino-5-cyclohexyl-2,4,5-trideoxypentonyl-Leu- (3-dimethylamino) benzylamide N-methylammonium trifluoroacetate]?
A: decrease in affinity [1]: 68 fold; decrease in affinity ([R127N] BB3* receptor): 78 fold; decrease in affinity ([R127K] BB3* receptor): 45 fold; decrease in affinity [2]: 35 fold; decrease in affinity ([L123I] BB3* receptor): 4 fold; decrease in affinity [3]: 179 fold; decrease in affinity [4]: 250 fold; decrease in affinity [5]: 12 fold; decrease in affinity [6]: > 192 fold; decrease in affinity ([7]; E111D or G112R BB3 receptor mutants): 1 to 2.5 fold; loss in affinity ([7]; [G112R] in wild type and BB3* receptor): 2 fold and 2–3 fold; decrease in affinity ([7]; [H107F] and [H107Y] in BB3*): 7–16 fold; decrease in affinity ([7]; [H107K, E111D, G112R] in wild type and BB3*): 500 fold and > 500 fold; decrease in affinity ([7]; [H107K], BB3 and BB3* not separated): 60 fold and 35–54 fold and 50 fold; decrease in affinity ([7]; [H107N] in either BB3 or BB3*): > 58 fold; decrease in affinity ([7]; [H107W], background not separated): > 190 times; decrease in affinity ([7]; [H107Y] and [H107F] in either BB3 or BB3*): 4–16 fold and 5–17 fold; decrease in affinity ([7]; [L123I, R127Q] in wild type and BB3*): > 2,000 fold; decrease in affinity ([7]; [R127E] in wild type and BB3*): 188 fold and > 200 fold; decrease in affinity ([7]; [R127Q], [L123I] and [S124P] in wild type BB3): 233–536 fold; decrease in affinity ([7]; [R127Q], background not separated): 400 fold and > 390 fold and > 400 fold; pKi ([7]; read-out: Ki (range given), [G112R] in wild type and BB3* receptor): 7.80 to 7.94; decrease in affinity ([7]; single EC1 amino acid substitutions alone): 1.4–54 fold; decrease in affinity [8]: 45 fold; decrease in affinity [9]: 175 fold; decrease in affinity ([R127H] BB3* receptor): 192 fold; decrease in affinity [10]: 4 fold; decrease in affinity [11]: > 526 fold; decrease in affinity ([S124P] BB3* receptor): 54 fold; decrease in affinity [12]: 377 fold and > 377 fold and > 400 fold; decrease in affinity [13]: 13 fold; increase in affinity [14]: 5 fold; decrease in affinity ([H107K] BB3* receptor): 54 fold; decrease in affinity ([H107D] BB3* receptor): > 192 fold; decrease in affinity [15]: 23 fold
